Counter-ions that a name gives are not always drawn. Where a SMILES comes first, the peptide text is derived from it. The star is where a group is joined. Cbz = O=C(OCc1ccccc1)*; CH2F = FC*
Assays:
Assay type in all cases: cell-based
U87 cells [1] = experiment: Macropinocytosis inhibition with EIPA; conditions: C9 KD U87 cells, 20 μM EIPA vs DMSO
Experimental: Cell were treated with control and C9 siRNA. After 6 hours, media were replaced and control and siC9 cells were either treated with DMSO or with 20 μM 5-(N-Ethyl-N-isopropyl) amiloride (Sigma™, A3085). After 3 days, cells were then imaged using Nikon Eclipse™ Ts2-FL Inverted Fluorescence Microscope and vacuoles from images were quantitated using ImageJ™.
In another study to further confirm the macropinocytotic origin of the vacuoles, 5-(N-ethyl-N-isopropyl) amiloride (EIPA), a macropinocytosis inhibitor was used.
FIG. 9 presents phase contrast images (40×) of U87 cells treated with control or C9 siRNA (SEQ ID NO;631) and incubated in DMSO (siCtrl+DMSO and siC9+DMSO, respectively) or in 20 μM Amiloride (siCtrl+EIPA 20 μM and siC9+EIPA 20 μM, respectively). The scale bar represents 10 μm. WB on the right represents C9 KD efficiency in EIPA treated U87 cells. […] Statistical significance was assessed by an unpaired t-test: NS P>0.05, *P≤0.05, **P≤0.01, ***P≤0.001 ****P≤0.0001.

U87 cells [2] = experiment: RAC1 inhibition with NSC23766, vacuoles per cell; conditions: C9 KD U87 cells, 100 μM NSC23766 vs DMSO, 3 days
Experimental: Macropinocytosis is known to depends on RAC1 activation which induces membrane ruffling (through actin rearrangement) that mature into macropinosomes. If the accumulated vacuoles are of macropinocytotic origin, then inhibition of RAC1 should rescue their accumulation. To test this, cells were treated with control or C9 siRNA in combination with NSC23766 (NSC), a RAC1 inhibitor.
FIG. 11A, FIG. 11B, FIG. 11C and FIG. 11D are a set of phase contrast images (20×) of U87 cells treated with control or C9 siRNA (SEQ ID NO:631) and incubated in DMSO (siCtrl+DMSO and siC9+DMSO, respectively) or in 100 μM RAC1 inhibitor NSC23766 (siCtrl+NSC and siC9+NSC, respectively). The scale bar represents 10 μm. […] FIG. 12 is a graph representing quantitation of the data for U87 cells treated with control (n=76) siRNA and DMSO (blue dots), U87 cells treated with C9 siRNA (n=41) with DMSO (red squares), U87 cells treated with control (n=74) siRNA and 100 μm of NSC (green dots), and U87 cells treated with C9 siRNA (n=73) with 100 μm of NSC (purple dots). Statistical significance was assessed by an unpaired t-test: NS P>0.05, *P≤0.05, **P≤0.01, ***P≤0.001 ****P≤0.0001.

U87 cells [3] = experiment: Viability rescue with caspase inhibitor Z-VAD-FMK
Experimental: For viability assays (performed in 6-well plates), cells were harvested using trypsin (0.5 ml per well) and the media were saved from each well. The saved media was re-suspended with the trypsinised cells and 2-3 aliquots (50 μL each) of this suspension were taken into a 96-well plates. CellTiter-Glo™ (CTG) Luminescent Viability assay was used to measure the viability of these aliquots. CTG-media mixture (150 μL) were added to each well. The rest of the culture was used to extract protein. The viability of cells was measured using the 1:1 dilution of the CellTiter-Glo™ Luminescent reagent (Promega™, cat #G7573) with media, which was read on Victor™ 5 plate reader after 10 minutes of shaking at room temperature. The intensity of luminescence was normalized to that of the DMSO (Sigma™, D5879) control.
To confirm that cells undergo non-apoptotic death, apoptosis was blocked with a broad caspase inhibitor Z-VAD-FMK upon C9 KD. […] Additionally, the apoptosis inducer, staurosporine (STS), was used to asses Z-VAD-FMK efficacy. […] A beta galactosidase staining technique was used to asses senescence upon C9 KD. […] See FIG. 20, for which U87 cells were treated with control (siCtrl) and C9 (siC9; SEQ ID NO:631) siRNA and then subjected to β-Galactosidase Staining.

p53 [4] = experiment: p53 western blot in p53 null U87 cells treated with doxorubicin; conditions: p53 null U87 cells (KO #4)
Experimental: To generate p53 knockout clones, U87 cells (7×10^5) were transfected with 2 μg p53 CRISPR/Cas9 KO plasmid (Santa Cruz Biotech™, sc-416469) using Lipofectamine 2000 (ThermoFisher™). Two days later, cells were treated with Nutlin-3 (10 μM) for 12 days to inhibit proliferation of cells with wild type p53, thereby enriching for p53 knockout cells. Single-cell clones were selected via limiting dilution, and p53 knockout clones were confirmed by western blotting using p53 antibody (FL-393).
To further validate the dependency of vacuolization on p53, two p53 null cell lines were generated using CRISPR. First, the cells lack of p53 was validated by treating them doxorubicin, […]. […] See FIG. 31, which is a WB showing p53 levels in wtp53 U87 (WT p53) cells and in p53 null U87 cells treated with DMSO (KO #4+DMSO) or DOX (KO #4+DOX).

U87 cells [5] = experiment: TUNEL assay for DNA breaks; conditions: vs control
Experimental: Cells were treated with control and C9 siRNA for three days. On day three, cells were collected for TUNEL assay using the FlowTACS kit (TREVIGEN™, 4817-60-K) according to manufacturer's instructions to detect DNA fragmentation. For a positive control, DNA damage was induced using doxorubicin. Data were collected on a FACSCalibur™ flow cytometer (Becton Dickinson™) and data analysis performed on FlowJo™.
ROS can cause oxidative DNA damage. Since elevated ROS levels were observed under C9 KD conditions, it may cause increase in DNA damage. To test this hypothesis, a TUNEL assay was used to measure DNA breaks. […] In addition to C9KD, U87 cells were treated with a known chemotherapeutic DNA damage-inducing drug to serve as a positive control for DNA damage (see FIG. 23). FIG. 23 presents data for the TUNEL assay of U87 cells treated as described for FIG. 21 and for positive DNA-damage control with 0.5 μM doxorubicin (DOX). FIG. 23A presents data for the percentage of cells with DNA fragmentation (shown by DNA damage) comparing control (siCtrl) C9 KD (siC9; SEQ ID NO:631) and DOX-treated cells as measured by FACS analysis. […] FIG. 24 is a set of graphs showing data for cells treated as described for FIG. 23, with the exception of using a different C9 siRNA, indicated as siC9 #2 (SEQ ID NO:633).

p53 [6] = experiment: Western blot of phospho-p53, p53 and p21; conditions: U87 cells
Experimental: For Western blot analysis, cells were lysed with lysis buffer (20 mM sodium phosphate (pH 7.0), 250 mM NaCl, 30 mM sodium pyrophosphate, 0.1% Nonidet™ P-40, 5 mM EDTA, 10 mM NaF, 0.1 mM Na3VO4, and 1 mM PMSF) supplemented with complete protease inhibitors (Roche™) and homogenized by passage through a 28 gauge needle. Protein concentration was measured with a Bio-Rad™ protein assay dye reagent and results were read using a spectrophotometer (BiophotometerPlus™ by Eppendorf™). Protein extracts were resolved by SDS PAGE on gradient (Thermo Fisher™) or 12% gels. Proteins were then electrotransferred at 350 mA for 80 minutes onto a PVDF membrane (Immobilon-P PVDF). Membranes were blocked with PBST with 5% milk and 1% BSA for 30 minutes. Quantitation of blots was performed Image Studio Lite software (LI-COR Biosciences™).
One of the responses to DNA damage is activation of p53 by ATM. Upon DNA damage, ATM activation leads to p53 phosphorylation, which activates p53 as a transcription factor. Since increased DNA damage was observed upon C9 KD, whether p53 is activated in C9 depleted cells was investigated. First, total p53 levels were measured in U87 cells treated with control and two independent siRNAs against C9. […] Then, the levels of phosphorylated (active) p53 (at s15) was measured. Phosphorylation of s15 on p53 was increased in both C9 siRNA samples.

## CCN(c1nc(N)c(C(=O)NC(=N)N)nc1Cl)C(C)C [EIPA, 5-(N-ethyl-N-isopropyl) amiloride]
U87 cells [1]
  vacuole formation: significant inhibition of vacuole formation

## CCN(CC)CCCC(C)Nc1nc(C)cc(Nc2ccc3nc(C)cc(N)c3c2)n1 (stereo not drawn) [NSC23766]
U87 cells [2]
  vacuoles per cell: significant drop in vacuoles

## COC(=O)C[C@H](NC(=O)[C@H](C)NC(=O)[C@@H](NC(=O)OCc1ccccc1)C(C)C)C(=O)CF [Z-VAD-FMK] (Cbz-Val-Ala-Asp(OMe)-CH2F)
U87 cells [3]; C9 KD U87 cells
  rescue of cell viability: did not significantly rescue
U87 cells [3]; staurosporine (STS) treated U87 cells
  rescue of cell viability: able rescue viability

## COc1cccc2c1C(=O)c1c(O)c3c(c(O)c1C2=O)C[C@@](O)(C(=O)CO)C[C@@H]3O[C@H]1C[C@H](N)[C@H](O)[C@H](C)O1 [doxorubicin, Doxorubicin hydrochloride]
p53 [4]
  p53 accumulation: did not induce p53 accumulation

## siC9 #2: siRNA targeting C9 mRNA: GCACAUAUGGACUAUCAAUtt (SEQ ID NO:633; sense) and AUUGAUAGUCCAUAUGUGCtg (SEQ ID NO:634; antisense) (sense GCACAUAUGGACUAUCAAUTT; antisense AUUGAUAGUCCAUAUGUGCTG; chemistry not given here)
U87 cells [5]
  DNA breaks (TUNEL): increase in DNA breaks
p53 [6]
  p21 protein levels: increased p21 protein levels
  phosphorylation of s15 on p53: increased
  total p53 levels: elevates p53 levels
